These results are taken from ChEMBL document CHEMBL5126651, “ALK Inhibitors for Treating Cancer, Blood, and Kidney Diseases” (ACS Med Chem Lett, 2022).

Usually IC50 stands for the concentration that inhibits the measured activity by half.

Bounds are passed on as bounds.

For one test, the species on record is Homo sapiens. In words: Selectivity ratio of IC50 for ALK2 (unknown origin) to IC50 for ALK5 (unknown origin).
For another test, the target named is T1, TGF-beta receptor type-1 (Homo sapiens, UniProt P36897).
T1 sequence (P36897 whole entry): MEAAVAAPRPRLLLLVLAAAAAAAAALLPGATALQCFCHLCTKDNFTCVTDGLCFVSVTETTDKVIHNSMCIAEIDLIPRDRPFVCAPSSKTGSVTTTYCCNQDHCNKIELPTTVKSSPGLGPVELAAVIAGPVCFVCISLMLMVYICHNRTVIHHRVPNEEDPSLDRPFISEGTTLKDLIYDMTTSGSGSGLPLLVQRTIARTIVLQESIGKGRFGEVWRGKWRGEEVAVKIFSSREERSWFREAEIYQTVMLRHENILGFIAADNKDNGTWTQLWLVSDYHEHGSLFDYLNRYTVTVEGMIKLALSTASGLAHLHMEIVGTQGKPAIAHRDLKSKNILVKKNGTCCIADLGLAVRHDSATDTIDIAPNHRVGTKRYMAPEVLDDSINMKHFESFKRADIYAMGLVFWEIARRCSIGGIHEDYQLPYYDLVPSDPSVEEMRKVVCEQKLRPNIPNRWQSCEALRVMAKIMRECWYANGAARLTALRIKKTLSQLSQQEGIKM
In words: Displacement of Alexa Fluor labeled tracer 178 from ALK5 (unknown origin) using anti-GST antibody incubated for 60 mins by TR-FRET based LanthaScreen Eu-Kinase binding assay. On the technique in general: Time-resolved FRET reads energy transfer from a long-lived donor to a nearby acceptor.

Test [1] addresses T2, TGF-beta receptor type-1 (Homo sapiens) (UniProt P36897).
T2 sequence (whole entry): T1 sequence (P36897 whole entry)
Nature of the test: Inhibition of TGF-beta receptor 1 in human RD cells transfected with Smad reporter plasmid by reporter gene based One-Glo luciferase assay. The format is cell-based. Background: Reporter assays use an easily measured gene product as a stand-in for the process of interest.

Consider `Cc1cccc2c(Nc3ccnc(Nc4cc(CN5CCNCC5)ccc4F)n3)cnnc12`, for which the Ratio IC50 in the test listed under Homo sapiens worked out at 10. Moreover, the IC50 at TGF-beta receptor type-1 is at most 10 nM. In test [1], this compound came in with an INH of under 1000 nM.

As for `Cc1c(F)ccc2c(Nc3ccnc(Nc4ccc(N5CCNCC5)cc4)n3)cnnc12`, the Ratio IC50 in the test filed under Homo sapiens turned out to be 10. The compound also yielded an IC50 at TGF-beta receptor type-1 of at most 10 nM. The INH in test [1] is under 100 nM.

`Cc1cccc2c(Nc3nc(Nc4cc(CN5CCNCC5)ccc4F)ncc3F)cnnc12`: the Ratio IC50 in the test listed under Homo sapiens was over 10. Besides, the IC50 on TGF-beta receptor type-1 was determined as 10 nM. Moreover, the INH in test [1] was under 1000 nM.

On to `Cc1c(F)ccc2c(Nc3ccnc(Nc4ccc(N5CCN(C)CC5)cc4)n3)cnnc12`, for which the Ratio IC50 in the test listed under Homo sapiens was found to be 10. On TGF-beta receptor type-1, this compound came in with an IC50 of at most 10 nM. This compound also came in with an INH in test [1] of under 100 nM.

`Cc1cccc2c(Nc3ccnc(Nc4cc(F)cc(CN5CCNCC5)c4)n3)cnnc12`: the Ratio IC50 in the test listed under Homo sapiens was over 10. The same compound showed an IC50 on TGF-beta receptor type-1 of at most 10 nM. In addition, in test [1], the INH was under 100 nM.

As to `Cc1cccc2c(Nc3ccnc(Nc4ccc(CC5CCNCC5)cc4)n3)cnnc12`, the Ratio IC50 in the test filed under Homo sapiens worked out at 10. The compound further returned an IC50 on TGF-beta receptor type-1 of under 1000 nM. In test [1], this compound yielded an INH of under 1000 nM.

On to `Cc1cc(F)cc2c(Nc3ccnc(Nc4ccc(N5CCN(C)CC5)cc4)n3)cnnc12`, for which, in the test listed under Homo sapiens, the Ratio IC50 amounted to 10. The compound also displayed an IC50 at TGF-beta receptor type-1 of at most 10 nM. Besides, the INH in test [1] is under 100 nM.

`Cc1cccc2c(Nc3ccnc(Nc4cccc(N5CCOCC5)c4)n3)cnnc12`: the Ratio IC50 in the test filed under Homo sapiens is 10. The IC50 on TGF-beta receptor type-1 is at most 10 nM. In test [1], this compound showed an INH of under 100 nM.

`Cc1cccc2c(Nc3ccnc(Nc4ccc(N5CCOCC5)c(Cl)c4)n3)cnnc12`: the Ratio IC50 in the test listed under Homo sapiens worked out at 10. In addition, the IC50 on TGF-beta receptor type-1 was at most 10 nM. The INH in test [1] was under 100 nM.

Regarding `Cc1cccc2c(Nc3ccnc(Nc4ccc(N5CCOCC5)cc4)n3)cnnc12`, in the test filed under Homo sapiens, the Ratio IC50 was 10. Also, the IC50 at TGF-beta receptor type-1 is at most 10 nM. The INH in test [1] was under 100 nM.

Take `Cc1cccc2c(Nc3ccnc(Nc4ccc(N5CCNCC5)c(F)c4)n3)cnnc12`: the Ratio IC50 in the test listed under Homo sapiens is 10. For the same compound, the IC50 on TGF-beta receptor type-1 is at most 10 nM. The INH in test [1] was under 100 nM.

Turning to `Cc1cccc2c(Nc3ccnc(Nc4cccc(CN5CCN(C)CC5)c4)n3)cnnc12`, the Ratio IC50 in the test listed under Homo sapiens was over 10. The IC50 at TGF-beta receptor type-1 is at most 10 nM. In test [1], the INH is under 100 nM.
